The record followed here is patent US20240376097A1, “BCL-2 Inhibitor” (BeiGene Ltd., priority 2020, published 2024).

For test [1], the target named is Recombinant human Bcl-2 protein (Homo sapiens (Human), UniProt P10415). The experiment in a line: Bcl-2 TR-FRET Assay. Type of test: binding. Conditions: Bcl-2 wild type, TR-FRET; read-out: Biochemical assay (IC50, nM) Bcl-2 WT. Put shortly:
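Displacement of FITC-labelled Bak peptide (0.5 nM) from 0.05 nM human Bcl-2, detected by TR-FRET with Tb-cryptate anti-6His antibody after 1 h at room temperature. Compounds, 10-point series, preincubated 0.5 h with protein in 20 mM potassium phosphate pH 7.5, 50 mM NaCl. IC50s fitted by four-parameter logistic.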

For test [2], the target named is recombinant human Bcl-2-G101V protein (Homo sapiens (Human), UniProt P10415, G101V). The experiment in a line: Bcl-2-G101V TR-FRET Assay. Type of test: binding. The conditions noted are these: Bcl-2 G101V mutant, TR-FRET; read-out: Biochemical assay (IC50, nM) Bcl-2 G101V. Put shortly:
(§1)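 Ex337/em490 & 520 nm TR-FRET; % inhibition of Bcl-2-G101V–ligand interaction from 490:520 ratio vs. increasing compound conc.; IC50 by 4-parameter logistic fit.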
On the technique in general: TR-FRET usually uses a lanthanide donor and a delayed reading to cut background.

Test [3] relates to recombinant human Bcl-2-G101V protein. The experiment in a line: Bcl-2-G101V TR-FRET Assay. Type of test: binding. The conditions noted are these: ratio of biochemical IC50 Bcl-2 G101V / Bcl-2 WT. The method, boiled down: as §1
In test [4] the test system is RS4;11 (BCL-2 dependent acute lymphoblastic leukemia cell line). The experiment in a line: RS4;11 Cell Proliferation Assay. Format: cell-based. The conditions noted are these: Homo sapiens, RS4-11, RS4;11 cells, read-out: Cellular proliferation assay (IC50, nM) RS4. As for the experimental part: Biological Example: RS4;11 Cell Proliferation Assay
(§2) The BCL-2 dependent acute lymphoblastic leukemia (ALL) cell line, RS4;11, was used to study the cellular potency of BCL-2 inhibitors. The cells (ATCC, CRL-1873) were cultured in RPMI-1640 complete medium (RPMI-1640 medium, HEPES (Gibco, 22400-105) supplemented with 10% fetal bovine serum (FBS) (Gibco, 10099-1441), 100 unit/ml penicillin and 100 μg/ml streptomycin (Gibco, 15140122)) and maintained in a humidified chamber at 37° C. containing 5% CO2. Each compound was serially diluted with 1 μM as the maximum concentration. To test the apoptotic effect of the compounds, the cells were seeded at 50,000 in 180 μl per well in 96-well plates and treated with 10-point dilution series of each compound for 48 hrs at 37° C. Cell viability was assessed after the treatment using CellTiter-GLO luminescent assay (Promega) according to the manufacturer's recommendations. Briefly, 30 μl of CellTiter-GLO reagent was added into 200 μl of cell culture. Mixture was agitated on an orbital shaker for 5 min to ensure cell lysis followed by 7 min incubation at room temperature to allow development and stabilization of luminescent signals, which corresponded to the quantity of ATP and thus the quantity of metabolically active cells. Luminescent signals were measured using PHERAstar FS reader (BMG). Mean IC50 values were determined with GraphPad Prism software.

The subject of test [5] is BCL-2 G101V knock-in cell line H96 (derive from RS4;11). The experiment in a line: Bcl 2-G101V Knock-In RS4;11 Cell Proliferation Assay. Type of test: cell-based. Conditions: Homo sapiens, RS4;11 Bcl-2 G101V knock-in clone H96, 48 hrs, CellTiter-GLO, read-out: Cellular proliferation assay (IC50, nM) RS4. As for the experimental part:
Biological Example: Bcl 2-G101V Knock-In RS4;11 Cell Proliferation Assay
(1) RS4;11 H96 Bcl 2-G101V Knock-In Cell Line Generation
Briefly, RS4;11 BCL2-G101V knock-in cell pool was generated using Crisper/Cas9 gene editing system and the BCL2-G101V knock-in single clone H96 was picked from the knock-in cell pool and validated by WES (whole exome-sequencing) and RNA-seq.
The BCL-2 dependent acute lymphoblastic leukemia (ALL) cell line, RS4;11(ATCC, CRL-1873), was cultured in RPMI-1640 complete medium (RPMI-1640 medium, HEPES (Gibco, 22400-105) supplemented with 10% fetal bovine serum (FBS) (Gibco, 10099-1441), 100 unit/ml penicillin and 100 μg/ml streptomycin (Gibco, 15140122)) and maintained in a humidified chamber at 37° C. containing 5% CO2.
To obtain BCL2-G101V knock-in cell pool, RS4;11 was co-transfected with the Cas9-gRNA which also expressed GFP label, and the Donor gene which contained the BCL2-G101V mutant sequence. After 48 hrs of electroporation, the GFP positive cells were collected through FACSAriaIII cell sorting system. Cell pool was recovered for 3 days and then cultured under 2 nM ABT-199 stress for 4 weeks. […] Then cells were plated in 96 well U-plate with 1 cell/well for 10000 wells for single clone selection. After 3-5 weeks growing, clones were successively screened by PCR sequencing. And three BCL2-G101V knock-in clones: H96, H142 and H233, have been picked out.
Three clones were validated by genome DNA and cDNA(mRNA) PCR sequencing, and BCL-2, BCL-xL and MCL-1 expression using Western Blot. The H96 clone was also validated by WES (whole exome-sequencing) and RNA-seq.
(2) Bcl 2-G101V Knock-In RS4;11 Cell Proliferation Assay
as §2, with “G101V knock-in” for “dependent acute lymphoblastic leukemia (ALL)”, “line H96 (derive from RS4;11) were” for “line, RS4;11, was”, “cells” for “cells (ATCC, CRL-1873)”, “μM or 10 μM” for “μM”, “90” for “180”, “100” for “200”

Consider `CC(C)c1ccccc1[C@@H]1CN(Cc2cnn(C)c2)CCN1C1CC2(CCN(c3ccc(C(=O)NS(=O)(=O)c4ccc(NC[C@H]5CC[C@](C)(O)CC5)c([N+](=O)[O-])c4)c(Oc4cnc5[nH]ccc5c4)c3)CC2)C1` (single isomer, unassigned) [Example 22b, 2-((1H-pyrrolo[2,3-b]pyridin-5-yl)oxy)-N-((4-((((1r,4r)-4-hydroxy-4-methylcyclohexyl)methyl)amino)-3-nitrophenyl)sulfonyl)-4-(2-((S or R)-2-(2-isopropylphenyl)-4-((1-methyl-1H-pyrazol-4-yl)methyl)piperazin-1-yl)-7-azaspiro[3.5]nonan-7-yl)benzamide], for which the IC50 in test [1] was 0.038 nM; in test [2] it was 1.9 nM; in test [4], 7.6 nM; in test [5], 57.3 nM. Moreover, the “Ratio of Bcl-2 G101V/WT” value in test [3] was found to be 50.0.
The corresponding values for `COc1ccc(CN2CCN(C3CC4(CCN(c5ccc(C(=O)NS(=O)(=O)c6ccc(NCC7CCOCC7)c([N+](=O)[O-])c6)c(Oc6cnc7[nH]ccc7c6)c5)CC4)C3)[C@H](c3ccccc3C(C)C)C2)cc1` (single isomer, unassigned) [Example 69, (R or S)-2-((1H-pyrrolo[2,3-b]pyridin-5-yl)oxy)-4-(2-(2-(2-isopropylphenyl)-4-(4-methoxybenzyl)piperazin-1-yl)-7-azaspiro[3.5]nonan-7-yl)-N-((3-nitro-4-(((tetrahydro-2H-pyran-4-yl)methyl)amino)phenyl)sulfonyl) benzamide] are 0.041 nM, 0.37 nM, 0.47 nM, 2 nM and 8.9.
Taken in the same sequence, the figures for `CCN1CCN(C2CC3(CCN(c4ccc(C(=O)NS(=O)(=O)c5ccc(NC[C@H]6CC[C@](C)(O)CC6)c([N+](=O)[O-])c5)c(Oc5cnc6[nH]ccc6c5)c4)CC3)C2)C(c2ccccc2C(C)C)C1` (stereo partly shown) [Example 2] were 0.011 nM, 0.25 nM, 0.53 nM, 3.94 nM and 22.7.
The corresponding values for `CC(C)c1ccccc1C1CN(C2CCCCC2)CCN1C1CC2(CCN(c3ccc(C(=O)NS(=O)(=O)c4ccc(NC[C@H]5CC[C@](C)(O)CC5)c([N+](=O)[O-])c4)c(Oc4cnc5[nH]ccc5c4)c3)CC2)C1` (stereo partly shown) [Example 9] are 0.034 nM, 0.52 nM, 0.51 nM, 4.37 nM and 15.3.
For `COc1ccc(CN2CCN(C3CC4(CCN(c5ccc(C(=O)NS(=O)(=O)c6ccc(NC[C@H]7CC[C@](C)(O)CC7)c([N+](=O)[O-])c6)c(Oc6cnc7[nH]ccc7c6)c5)CC4)C3)C(c3ccccc3C)C2)cc1` (stereo partly shown) [Example 34, 2-((1H-pyrrolo[2,3-b]pyridin-5-yl)oxy)-N-((4-((((1r,4r)-4-hydroxy-4-methylcyclohexyl)methyl)amino)-3-nitrophenyl)sulfonyl)-4-(2-(4-(4-methoxybenzyl)-2-(o-tolyl)piperazin-1-yl)-7-azaspiro[3.5]nonan-7-yl)benzamide], the IC50 in test [1] was 0.049 nM; in test [2], 1.8 nM; in test [4], 1.3 nM; in test [5] it was 13.9 nM. Further, the “Ratio of Bcl-2 G101V/WT” value in test [3] came out at 36.7.
As to `COc1ccc(CN2CCN(C3CC4(CCN(c5ccc(C(=O)NS(=O)(=O)c6ccc(NC[C@H]7CC[C@](C)(O)CC7)c([N+](=O)[O-])c6)c(Oc6cnc7[nH]ccc7c6)c5)CC4)C3)C(c3ccccc3CN3CCOCC3)C2)cc1` (stereo partly shown) [Example 37, 2-((1H-pyrrolo[2,3-b]pyridin-5-yl)oxy)-N-((4-((((1r,4r)-4-hydroxy-4-methylcyclohexyl)methyl)amino)-3-nitrophenyl)sulfonyl)-4-(2-(4-(4-methoxybenzyl)-2-(2-(morpholinomethyl)phenyl)piperazin-1-yl)-7-azaspiro[3.5]nonan-7-yl)benzamide], the IC50 in test [1] was 0.42 nM; in test [2], 12 nM; in test [4], 77.4 nM; in test [5] it was 289 nM. Also, the “Ratio of Bcl-2 G101V/WT” value in test [3] was 28.6.
The corresponding values for `COc1ccc(CN2CCN(C3CC4(CCN(c5ccc(C(=O)NS(=O)(=O)c6ccc(NCC7CCOCC7)c([N+](=O)[O-])c6)c(Oc6cnc7[nH]ccc7c6)c5)CC4)C3)C(c3ccccc3C)C2)cc1` (stereo not shown) [Example 38] are 0.053 nM, 4.1 nM, 2.5 nM, 37.5 nM and 77.4.
The corresponding values for `COc1cccc(CN2CCN(C3CC4(CCN(c5ccc(C(=O)NS(=O)(=O)c6ccc(NC[C@H]7CC[C@](C)(O)CC7)c([N+](=O)[O-])c6)c(Oc6cnc7[nH]ccc7c6)c5)CC4)C3)C(c3ccccc3C(C)C)C2)c1` (stereo partly shown) [Example 44, 2-((1H-pyrrolo[2,3-b]pyridin-5-yl)oxy)-N-((4-((((1r,4r)-4-hydroxy-4-methylcyclohexyl)methyl)amino)-3-nitrophenyl)sulfonyl)-4-(2-(2-(2-isopropylphenyl)-4-(3-methoxybenzyl)piperazin-1-yl)-7-azaspiro[3.5]nonan-7-yl) benzamide] are 0.3 nM, 0.84 nM, 0.5 nM, 3.31 nM and 2.8.
